Reference: PubChem BioAssay AID256 (DTP/NCI, 2004)
Where “and” joins values, the source holds several entries; their conditions need not be identical. Identical values can stand only once. Inconclusive results and toxic doses are left out. How the source made its calls: active means survival T/C of 150% or more; inactive means T/C below 125% in these data.

Test system: CD2F1 mice, L1210 leukemia ip, survival T/C
Assay: NCI In Vivo Anticancer Drug Screen. Data for tumor model L1210 Leukemia (intraperitoneal) in CD2F1 (CDF1) mice
Details: endpoint: mean survival time, higher = longer survival
In short: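 Tumor-bearing mice (transplanted tumor) were split into treated and vehicle control groups, and the measured endpoint of each treated group was divided by that of its vehicle controls.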

[1] = dose: 25.0 mg/kg/injection, schedule: Q04DX003 (ip), vehicle: saline with Tween-80
[2] = dose: 50.0 mg/kg/injection, schedule: Q04DX003 (ip), vehicle: saline with Tween-80
[3] = dose: 100.0 mg/kg/injection, schedule: Q04DX003 (ip), vehicle: saline with Tween-80
[4] = dose: 50.0 mg/kg/injection, schedule: Q01DX009 (ip), vehicle: saline with Tween-80
[5] = dose: 100.0 mg/kg/injection, schedule: Q01DX009 (ip), vehicle: saline with Tween-80
[6] = dose: 200.0 mg/kg/injection, schedule: Q01DX009 (ip), vehicle: saline with Tween-80
[7] = dose: 6.25 mg/kg/injection, schedule: Q01DX009 (ip), vehicle: Klucel (hydroxypropylcellulose) (HPC)
[8] = dose: 12.5 mg/kg/injection, schedule: Q01DX009 (ip), vehicle: Klucel (hydroxypropylcellulose) (HPC)
[9] = dose: 25.0 mg/kg/injection, schedule: Q01DX009 (ip), vehicle: Klucel (hydroxypropylcellulose) (HPC)
[10] = dose: 25.0 mg/kg/injection, schedule: Q04DX003 (ip), vehicle: saline
[11] = dose: 50.0 mg/kg/injection, schedule: Q04DX003 (ip), vehicle: saline
[12] = dose: 200.0 mg/kg/injection, schedule: Q04DX003 (ip), vehicle: saline
[13] = dose: 200.0 mg/kg/injection, schedule: Q04DX003 (ip), vehicle: saline with Tween-80
[14] = dose: 400.0 mg/kg/injection, schedule: Q01DX009 (ip), vehicle: saline with Tween-80
[15] = dose: 400.0 mg/kg/injection, schedule: Q04DX003 (ip), vehicle: saline with Tween-80

Measured: T/C

[Cl][Pt+2][Cl].[NH-]c1nc(-c2ccccc2)cs1.[NH-]c1nc(-c2ccccc2)cs1
inactive: dose: 3.13 mg/kg/injection, schedule: Q04DX003 (ip), vehicle: distilled water + Tween-80 101 % of control | dose: 6.25 mg/kg/injection, schedule: Q04DX003 (ip), vehicle: distilled water + Tween-80 101 % of control | dose: 12.5 mg/kg/injection, schedule: Q04DX003 (ip), vehicle: distilled water + Tween-80 96 % of control | dose: 25.0 mg/kg/injection, schedule: Q04DX003 (ip), vehicle: distilled water + Tween-80 102 % of control | dose: 50.0 mg/kg/injection, schedule: Q04DX003 (ip), vehicle: distilled water + Tween-80 96 % of control | dose: 100.0 mg/kg/injection, schedule: Q04DX003 (ip), vehicle: distilled water + Tween-80 98 % of control | dose: 200.0 mg/kg/injection, schedule: Q04DX003 (ip), vehicle: distilled water + Tween-80 98 % of control

C1N2CN3CN1CN(C2)C3.[Cl][Pt][Cl]
inactive: [1] 123 % of control | [2] 101 % of control | [3] 98 % of control

CC(NC1CCCCC1)c1ccc(O)cc1O (stereo not drawn)
inactive: dose: 75.0 mg/kg/injection, schedule: Q01DX001 (ip), vehicle: other 93 % of control | dose: 150.0 mg/kg/injection, schedule: Q01DX001 (ip), vehicle: other 87 % of control

CN(CCC#N)C(=O)Nc1ccccc1
inactive: dose: 100.0 mg/kg/injection, schedule: Q04DX003 (ip), vehicle: saline + alcohol 93 % of control | dose: 200.0 mg/kg/injection, schedule: Q04DX003 (ip), vehicle: saline + alcohol 98 % of control | dose: 400.0 mg/kg/injection, schedule: Q04DX003 (ip), vehicle: saline + alcohol 95 % of control

O=C(Nc1c(Cl)cccc1Cl)OCCOc1ccccc1Cl
inactive: [4] 98 % of control | [5] 98 % of control | [6] 98 % of control

OCCN1CCN(CCCN2c3ccccc3Sc3ccc(Cl)cc32)CC1
inactive: [7] 93 % of control | dose: 6.25 mg/kg/injection, schedule: Q04DX002 (ip), vehicle: Klucel (hydroxypropylcellulose) (HPC) 96 % of control | [8] 96 % of control | dose: 12.5 mg/kg/injection, schedule: Q04DX002 (ip), vehicle: Klucel (hydroxypropylcellulose) (HPC) 91 % of control | [9] 116 % of control | [10] 108 % of control and 110 % of control | dose: 25.0 mg/kg/injection, schedule: Q04DX009 (ip), vehicle: Klucel (hydroxypropylcellulose) (HPC) 113 % of control | [11] 110 % of control | [12] 116 % of control

CNC(=O)OCc1c(COC(=O)NC)c(-c2ccc(F)cc2)n2c1CCC2
inactive: dose: 3.13 mg/kg/injection, schedule: Q01DX009 (ip), vehicle: Klucel (hydroxypropylcellulose) (HPC) 115 % of control | [7] 107 % of control | [8] 118 % of control

S=C([SH2+])[SH2+].S=C([SH2+])[SH2+].[Pt+2].c1ccc(C[P+](c2ccccc2)(c2ccccc2)c2ccccc2)cc1
inactive: dose: 12.0 mg/kg/injection, schedule: Q04DX003 (ip), vehicle: saline 87 % of control | [10] 100 % of control | [11] 94 % of control

Cc1cc(C(=O)c2ccccn2)c2cc(Cl)cc(Cl)c2n1
inactive: [5] 93 % of control | [3] 88 % of control | [6] 91 % of control | [13] 94 % of control | [14] 87 % of control | [15] 94 % of control

CC(C)CC([N+](C)(C)C)P(=O)([O-])O (stereo not drawn)
inactive: dose: 100.0 mg/kg/injection, schedule: Q04DX003 (ip), vehicle: saline 101 % of control | [12] 95 % of control | dose: 400.0 mg/kg/injection, schedule: Q04DX003 (ip), vehicle: saline 98 % of control

CN(C)c1ccc(/C=[N+](\[O-])c2ccccc2)cc1
inactive: [4] 92 % of control | [5] 103 % of control | [6] 100 % of control

CNC(=O)c1n[nH]c(C)c1[N+](=O)[O-]
inactive: [9] 107 % of control | dose: 50.0 mg/kg/injection, schedule: Q01DX009 (ip), vehicle: Klucel (hydroxypropylcellulose) (HPC) 107 % of control | dose: 100.0 mg/kg/injection, schedule: Q01DX009 (ip), vehicle: Klucel (hydroxypropylcellulose) (HPC) 107 % of control | dose: 200.0 mg/kg/injection, schedule: Q01DX009 (ip), vehicle: Klucel (hydroxypropylcellulose) (HPC) 104 % of control | dose: 400.0 mg/kg/injection, schedule: Q01DX009 (ip), vehicle: Klucel (hydroxypropylcellulose) (HPC) 102 % of control

Cn1c(=O)c(CC(O)C(Cl)(Cl)Cl)nc2ccccc21 (stereo not drawn)
inactive: dose: 100.0 mg/kg/injection, schedule: Q04DX003 (ip), vehicle: Klucel (hydroxypropylcellulose) (HPC) 95 % of control | dose: 200.0 mg/kg/injection, schedule: Q04DX003 (ip), vehicle: Klucel (hydroxypropylcellulose) (HPC) 95 % of control | dose: 400.0 mg/kg/injection, schedule: Q04DX003 (ip), vehicle: Klucel (hydroxypropylcellulose) (HPC) 98 % of control

COCCCNC1=C(C#N)C(=O)NC(c2cccc([N+](=O)[O-])c2)S1 (stereo not drawn)
inactive: dose: 12.5 mg/kg/injection, schedule: Q01DX009 (ip), vehicle: saline with Tween-80 94 % of control | dose: 25.0 mg/kg/injection, schedule: Q01DX009 (ip), vehicle: saline with Tween-80 96 % of control | [4] 96 % of control | [5] 100 % of control | [6] 102 % of control | [14] 103 % of control

BrCc1ccccc1C[P+](c1ccccc1)(c1ccccc1)c1ccccc1
inactive: dose: 3.13 mg/kg/injection, schedule: Q01DX009 (ip), vehicle: saline sonified 107 % of control | dose: 6.25 mg/kg/injection, schedule: Q01DX009 (ip), vehicle: saline sonified 96 % of control | dose: 12.5 mg/kg/injection, schedule: Q04DX003 (ip), vehicle: saline sonified 107 % of control | dose: 25.0 mg/kg/injection, schedule: Q04DX003 (ip), vehicle: saline sonified 100 % of control

O=[N+]([O-])c1ccc(F)cc1
inactive: dose: 10.0 mg/kg/injection, schedule: Q04DX003 (ip), vehicle: saline 104 % of control | dose: 20.0 mg/kg/injection, schedule: Q04DX003 (ip), vehicle: saline 102 % of control | dose: 40.0 mg/kg/injection, schedule: Q04DX003 (ip), vehicle: saline 102 % of control

COc1ccccc1/C(C)=N\NC(=O)c1ccccc1
inactive: [5] 94 % of control | [3] 94 % of control | [6] 96 % of control | [13] 98 % of control | [15] 104 % of control

COc1cccc(NC(=S)/C(=C(\[O-])c2ccc([N+](=O)[O-])cc2)[n+]2ccc(C(C)C)cc2)c1
inactive: [5] 95 % of control | [6] 93 % of control

O=C1C(Cl)=C(NCc2ccc(Cl)cc2)C(=O)c2ccccc21
inactive: [1] 102 % of control | [2] 91 % of control | [3] 91 % of control

Cc1ccc(C(=O)CCl)c(C)c1
inactive: dose: 25.0 mg/kg/injection, schedule: Q04DX003 (ip), vehicle: Klucel (hydroxypropylcellulose) (HPC) 102 % of control | dose: 50.0 mg/kg/injection, schedule: Q04DX003 (ip), vehicle: Klucel (hydroxypropylcellulose) (HPC) 103 % of control
